Key:
Assay in all cases: relative viability (nuclei count vs DMSO), 5 days (fraction); higher = more cells survive
[1] = compound: CCn1c(-c2nonc2N)nc2cnc(Oc3cccc(NC(=O)c4ccc(OCCN5CCOCC5)cc4)c3)cc21 + COc1cccc2cc(-c3nc([C@H]4CC[C@H](C(=O)O)CC4)n4ncnc(N)c34)[nH]c12 [OSI-027] (partner 0.5 µM)
Summary of the method: (§1)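 Dosing by pin tool came one day after lung cancer cell lines were seeded in 1536-well plates, using either one drug or a fixed anchor-drug dose plus five library-drug doses (not always all listed) in √10 steps. After 5 days, nuclei were counted on 4× images. Relative viability is treated-well nuclei count divided by vehicle-well nuclei count, and values are medians of duplicate plates.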

Mirin + Vorinostat = compound: N=C1NC(=O)/C(=C/c2ccc(O)cc2)S1 [Mirin] + O=C(CCCCCCC(=O)Nc1ccccc1)NO [Vorinostat] (partner 1 µM)
Summary of the method: as §1

[2] = compound: CCC1=CN=CN=C1N2CCN(CC2)CC3=NC4=C(N3)C=C(C=C4)C(F)(F)F + CCNC(=O)c1noc(-c2cc(C(C)C)c(O)cc2O)c1-c1ccc(CN2CCOCC2)cc1 [Luminespib] (partner 0.01 µM)
Summary of the method: as §1

[3] = compound: CCC1=CN=CN=C1N2CCN(CC2)CC3=NC4=C(N3)C=C(C=C4)C(F)(F)F + Cc1nc(Nc2ncc(C(=O)Nc3c(C)cccc3Cl)s2)cc(N2CCN(CCO)CC2)n1 [Dasatinib] (partner 0.075 µM)
Summary of the method: as §1

| Cell Line | relative viability ([1]; first compound 0.04 µM) | relative viability ([1]; first compound 0.1265 µM) | relative viability ([1]; first compound 0.4 µM) | relative viability ([1]; first compound 1.265 µM) | relative viability ([1]; first compound 4 µM) | relative viability (Mirin + Vorinostat; first compound 0.25 µM) | relative viability (Mirin + Vorinostat; first compound 2.5 µM) | relative viability (Mirin + Vorinostat; first compound 7.906 µM) | relative viability (Mirin + Vorinostat; first compound 25 µM) | relative viability ([2]; first compound 0.04 µM) | relative viability ([2]; first compound 0.1265 µM) | relative viability ([2]; first compound 0.4 µM) | relative viability ([2]; first compound 1.265 µM) | relative viability ([2]; first compound 4 µM) | relative viability ([3]; first compound 0.04 µM) | relative viability ([3]; first compound 0.1265 µM) | relative viability ([3]; first compound 0.4 µM) | relative viability ([3]; first compound 1.265 µM) | relative viability ([3]; first compound 4 µM) | relative viability (Mirin + Vorinostat; first compound 0.7906 µM) |
| --- | --- | --- | --- | --- | --- | --- | --- | --- | --- | --- | --- | --- | --- | --- | --- | --- | --- | --- | --- | --- |
| NCI-H1395 | 0.785 | 0.512 | 0.525 | 0.351 | 0.384 | 0.809 | 0.822 | 0.811 | 0.938 | 0.624 | 0.775 | 0.66 | 0.651 | 0.619 | 0.441 | 0.405 | 0.371 | 0.442 | 0.384 |  |
| NCI-H1437 | 0.946 | 0.742 | 0.553 | 0.74 | 0.662 | 0.88 | 0.875 | 0.896 | 1.02 | 1.07 | 0.995 | 0.964 | 1.01 | 0.907 | 0.339 | 0.369 | 0.386 | 0.328 | 0.22 | 0.955 |
| NCI-H1650 | 0.666 | 0.678 | 0.551 | 0.535 | 0.656 | 0.497 | 0.51 | 0.482 | 0.495 | 0.212 | 0.207 | 0.186 |  | 0.213 | 0.346 | 0.299 | 0.333 |  | 0.309 | 0.656 |
| NCI-H1651 | 0.745 | 0.684 | 0.596 | 0.57 | 0.404 | 0.224 | 0.478 | 0.567 | 0.591 | 0.977 | 0.84 | 0.739 | 0.923 | 0.767 | 0.542 | 0.294 | 0.403 | 0.386 | 0.368 | 0.554 |
| NCI-H1666 | 1.02 | 0.995 | 0.74 | 0.796 | 0.668 | 1.01 | 1.01 | 0.928 | 0.938 | 0.949 | 0.906 | 0.925 | 0.908 | 1.04 | 0.777 | 0.685 | 0.742 | 0.783 | 0.865 | 1.23 |
| NCI-H1734 | 0.647 | 0.591 | 0.303 | 0.335 | 0.319 | 0.797 | 0.783 | 0.693 | 0.735 | 0.213 | 0.196 | 0.173 | 0.207 | 0.185 | 0.403 | 0.532 | 0.522 | 0.476 | 0.441 | 0.688 |
| NCI-H1755 | 0.714 | 0.738 | 0.466 | 0.476 | 0.45 | 0.761 | 0.863 | 0.59 | 0.824 | 0.458 | 0.483 | 0.311 | 0.338 | 0.308 | 0.427 | 0.396 | 0.416 | 0.375 | 0.381 | 0.62 |
| NCI-H1793 | 0.31 | 0.265 | 0.194 | 0.248 | 0.196 | 0.907 | 0.672 | 0.949 | 0.832 | 0.152 | 0.311 | 0.171 |  | 0.165 | 0.392 | 0.382 | 0.32 |  | 0.307 |  |
| NCI-H1915 | 0.695 | 0.626 | 0.476 | 0.259 | 0.252 | 0.527 | 0.558 | 0.341 | 0.52 | 0.699 | 0.827 | 0.75 | 0.639 | 0.688 | 0.276 | 0.318 | 0.283 | 0.298 | 0.319 | 0.498 |
| NCI-H1944 | 0.413 | 0.397 | 0.236 | 0.214 | 0.236 | 0.511 | 0.649 | 0.449 | 0.511 | 0.993 | 0.677 | 0.688 | 0.513 | 0.573 | 0.228 | 0.217 | 0.211 | 0.208 | 0.22 | 0.494 |
| NCI-H1975 | 0.616 | 0.465 | 0.322 | 0.196 | 0.208 | 0.696 | 0.718 | 0.703 | 0.733 | 0.283 | 0.302 | 0.176 | 0.199 | 0.205 | 0.402 | 0.435 | 0.385 | 0.325 | 0.293 | 0.777 |
| NCI-H1993 | 0.612 | 0.624 | 0.573 | 0.569 | 0.539 | 1.07 | 0.89 | 0.947 | 0.737 | 0.852 | 0.802 | 0.836 | 0.772 | 0.816 | 0.608 | 0.553 | 0.545 | 0.521 | 0.581 | 0.627 |
| NCI-H2009 | 0.753 | 0.597 | 0.39 | 0.361 | 0.322 | 0.716 | 0.738 | 0.673 | 0.784 | 1.1 | 0.966 | 1.02 | 1.06 | 0.87 | 0.269 | 0.309 | 0.298 | 0.249 | 0.275 | 0.875 |
| NCI-H2023 | 0.497 | 0.47 | 0.261 | 0.299 | 0.269 | 0.683 | 0.653 | 0.628 | 0.595 | 0.7 | 0.594 | 0.706 | 0.72 | 0.626 | 0.641 | 0.546 | 0.529 | 0.488 | 0.582 | 0.724 |
| NCI-H2085 | 1.02 | 0.679 | 0.602 | 0.664 | 0.551 | 0.805 | 0.853 | 0.922 | 0.804 | 0.442 | 0.481 | 0.421 | 0.387 | 0.356 | 0.233 | 0.245 | 0.303 | 0.218 | 0.251 | 0.842 |
| NCI-H2087 | 0.824 | 0.719 | 0.418 | 0.535 | 0.551 | 0.661 | 0.729 | 0.573 | 0.774 | 0.164 | 0.227 | 0.162 | 0.142 | 0.142 | 0.729 | 0.809 | 0.529 | 0.508 | 0.598 | 0.748 |
| NCI-H2126 | 0.811 | 0.754 |  |  | 0.899 | 0.852 | 0.679 | 0.792 | 0.713 | 0.847 | 0.89 | 0.931 | 0.773 | 0.922 | 0.589 | 0.593 | 0.535 | 0.516 | 0.485 | 0.645 |
| NCI-H2170 | 0.708 | 0.703 | 0.641 | 0.555 | 0.555 | 0.621 | 0.906 | 0.665 | 0.859 | 0.577 | 0.6 | 0.712 | 0.748 | 0.823 | 0.547 | 0.631 | 0.487 | 0.505 | 0.475 | 0.828 |
| NCI-H2228 | 0.662 | 0.637 | 0.386 | 0.545 | 0.405 | 0.576 | 0.957 | 0.724 | 1 | 0.131 | 0.132 | 0.131 | 0.144 | 0.175 | 0.515 | 0.44 | 0.409 | 0.416 | 0.712 | 0.96 |
| NCI-H2342 | 0.716 | 0.696 | 0.535 | 0.487 | 0.577 | 0.852 | 0.845 |  | 0.757 | 0.645 | 0.756 | 0.619 | 0.52 | 0.494 | 0.317 | 0.316 | 0.327 | 0.32 | 0.338 | 0.817 |
| NCI-H2347 | 0.502 | 0.505 | 0.426 | 0.334 | 0.333 | 0.569 | 0.641 | 0.494 | 0.66 | 0.346 | 0.415 | 0.372 | 0.228 | 0.44 | 0.257 | 0.4 | 0.281 | 0.351 | 0.339 | 0.645 |
| NCI-H2405 | 0.763 | 0.582 | 0.185 | 0.326 | 0.354 | 0.943 | 1.11 | 1.03 | 1.21 | 0.684 | 0.704 | 0.657 |  | 0.794 | 0.158 | 0.189 | 0.207 |  | 0.216 |  |
| NCI-H3122 | 1.4 | 0.961 | 0.729 | 0.326 | 0.737 | 1.06 | 1.08 | 0.997 | 1.05 | 0.109 | 0.0823 | 0.0856 | 0.0704 | 0.0698 | 0.848 | 0.781 | 0.804 | 0.709 | 1.02 | 1.01 |
| PC-3 [JPC-3] | 0.838 | 0.802 | 0.701 | 0.773 | 0.656 | 0.919 | 0.81 | 0.86 | 1.18 | 0.681 | 0.733 | 0.668 | 0.71 | 0.618 | 0.978 | 0.935 | 0.889 | 1 | 0.969 | 0.722 |
| PC-14 | 0.796 | 0.693 | 0.586 | 0.715 | 0.685 | 0.798 | 0.729 | 0.719 | 0.746 | 0.175 | 0.207 | 0.215 | 0.134 | 0.133 | 0.269 | 0.258 | 0.264 | 0.218 | 0.264 | 0.638 |
| RERF-LC-KJ | 0.625 | 0.496 | 0.38 | 0.371 | 0.389 | 0.565 | 0.686 | 0.709 | 0.664 | 1.24 | 1.23 | 1.21 | 1.12 | 1.05 | 0.768 | 0.714 | 0.846 | 0.69 | 0.696 | 0.816 |
| SK-LU-1 | 0.359 | 0.322 | 0.216 | 0.199 | 0.22 | 0.771 | 0.815 | 0.599 | 0.6 | 0.205 | 0.203 | 0.213 | 0.178 | 0.213 | 0.18 | 0.172 | 0.2 | 0.169 | 0.205 | 0.823 |
| SK-MES-1 | 0.651 | 0.601 | 0.403 | 0.386 | 0.359 | 1.12 | 1.18 | 1.12 | 1.24 | 0.779 | 0.951 | 0.718 | 0.735 | 0.793 | 0.342 | 0.376 | 0.416 | 0.319 | 0.493 | 1.46 |
| SW 900 | 0.553 | 0.557 | 0.421 | 0.559 | 0.578 | 0.608 | 0.423 | 0.583 | 0.401 | 0.165 | 0.194 | 0.158 | 0.177 | 0.195 | 0.601 | 0.544 | 0.571 | 0.603 | 0.448 | 0.482 |
| SW 1573 | 0.835 | 0.594 | 0.299 | 0.326 | 0.237 | 0.867 | 0.765 | 0.308 | 0.56 | 0.158 | 0.211 | 0.174 | 0.273 | 0.399 | 0.382 | 0.453 | 0.5 | 0.494 | 0.452 | 0.772 |

— the supplement of paper PMC10307832
